Biological target: T1, Human plasma kallikrein (Homo sapiens, UniProt P03952)
T1 construct: purchased Kordia (Leiden, Netherlands) batch HPKA 1303
Experiment: In vitro inhibition of plasma kallikrein (fluorogenic substrate DPro-Phe-Arg-(Rh110)-γGlu-OH)
Type: biochemical
Details: human plasma kallikrein nominally 12 pM, substrate 0.5 μM, 1 hour pre-incubation at room temperature, read after 1 hour (t=60 min)
Experimental: In Vitro Inhibition of Plasma Kallikrein
The fluorogenic substrate DPro-Phe-Arg-(Rh110)-γGlu-OH (where DPro is the amino acid d-proline, Rh110 is the fluorophore rhodamine 110 and γGlu is a […] linked to Rh110 via the gamma-carbonyl function; from Biosyntan, Berlin, Germany), being based on the chromogenic substrate described in Gallimore et al (Thromb Res 25, 293-298, 1982), was dissolved in DMSO at 5 mM and stored at −80° C. All other chemicals were of analytical grade.
Human plasma kallikrein was purchased from Kordia (Leiden, Netherlands, batch HPKA 1303) in lyophilized form.
The protein solution was reconstituted from the lyophilisate by addition of deinonized water. The resulting stock solution comprised the protein at a concentration of 0.17 mg/ml in 4 mM sodium acetate/HCl and 150 mM NaCl at pH 5.3. The stock solution was stored in aliquots at −80° C. Enzymatic reactions were conducted in ‘assay buffer’, comprising 50 mM Hepes/NaOH at pH 7.8, 150 mM NaCl, 1 mM EDTA and 0.05% (w/v) CHAPS.
Both, enzyme and substrate were diluted in assay buffer.
All protein and peptide containing solutions were handled in siliconized tubes (Life Systems Design, Merenschwand, Switzerland). The compound solutions as well as the enzyme and the substrate solutions were transferred to 384-well plates (black Cliniplate; cat. no. 95040020 Labsystems Oy, Finland) by means of a CyBi-Well 96-channel pipettor (CyBio AG, Jena, Germany). Plate measurements were conducted by the means of a Safire2 reader (TECAN, Maennedorf, Switzerland). The Safire2 is a monochomator-based instrument and wavelengths of 485 nm and 535 nm were taken for fluorescence excitation and emission acquisition, respectively. The bandwidths were set to 10 nm in both the excitation and the emission path. The fluorescence in each well was excited by three flashes per measurement.
For the determination of IC50 values, the assays were performed at room temperature in 384-well plates with a total assay volume of 25.25 μl per well.
The test compound was dissolved in 90% (v/v) DMSO/water. For the assays, […] of the 90% (v/v) DMSO/water solution or compound solution were added per well, followed by the addition of 12.5 μl protease solution (protease in assay buffer). The final assay concentration of the human plasma kallikrein was nominally 12 pM, the 11 compound concentrations in the dilution series were in the range form 1 nM to 100 μM. After 1 hour of pre-incubation at room temperature, the reactions were started by the addition of 12.5 μl substrate solution (in assay buffer, final assay concentration was 0.5 μM). After the addition of the substrate solution, the final DMSO concentration in the assay was 0.9% (v/v). The effect of the compound on the enzymatic activity was obtained from the linear part of the progress curves and determined after 1 hour (t=60 min). The IC50 value was calculated from the plot of percentage of inhibition vs. inhibitor concentration by a logistics fit according to the following equation:
where y is the %-inhibition at the inhibitor concentration, x. A1 is the lowest inhibition value, i.e. 0%, and A2 the maximum inhibition value, i.e. 100%. The exponent, p, is the Hill coefficient. The curve fitting was conducted with the non-linear regression routine of the analysis software Origin 7.5SR6 (Origin Lab Corporation).

T1 sequence (P03952 391-638 limits assumed): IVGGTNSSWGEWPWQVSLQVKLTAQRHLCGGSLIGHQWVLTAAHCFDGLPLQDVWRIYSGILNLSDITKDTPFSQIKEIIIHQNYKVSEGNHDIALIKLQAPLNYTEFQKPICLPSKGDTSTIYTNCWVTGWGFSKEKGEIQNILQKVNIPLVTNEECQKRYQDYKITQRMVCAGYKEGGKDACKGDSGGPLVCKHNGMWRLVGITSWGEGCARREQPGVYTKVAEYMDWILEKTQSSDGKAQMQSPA
T1 sequence (P03952 20-390 partner limits assumed): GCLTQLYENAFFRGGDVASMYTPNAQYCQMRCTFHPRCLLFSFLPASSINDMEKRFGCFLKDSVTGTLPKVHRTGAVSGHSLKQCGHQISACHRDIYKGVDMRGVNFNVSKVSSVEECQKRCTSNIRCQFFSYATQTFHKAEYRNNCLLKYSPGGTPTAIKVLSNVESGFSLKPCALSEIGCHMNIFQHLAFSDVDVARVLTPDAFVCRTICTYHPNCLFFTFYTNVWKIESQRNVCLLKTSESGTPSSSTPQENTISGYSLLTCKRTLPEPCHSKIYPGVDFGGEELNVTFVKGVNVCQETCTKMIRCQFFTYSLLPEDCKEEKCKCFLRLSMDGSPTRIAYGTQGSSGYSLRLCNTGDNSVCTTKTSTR

IC50 [µM]	Structure (SMILES)
> 30	COc1cccc(Cn2cc(C(=O)NCc3ccc(Cl)cc3)cn2)c1 [N-(4-chlorobenzyl)-1-(3-methoxybenzyl)-1H-pyrazole-4-carboxamide]
> 30	Cc1ccc(CNC(=O)c2cn(Cc3ccc4nc(C)ccc4c3)nn2)c(Cl)n1 [N-((2-chloro-6-methylpyridin-3-yl)methyl)-1-((2-methylquinolin-6-yl)methyl)-1H-1,2,3-triazole-4-carboxamide]

The remaining lines, values behind:

Structure (SMILES)	IC50 [µM]
Cn1nnc2cc(Cn3cc(C(=O)NCc4cccc(Cl)c4)cn3)ccc21 [N-(3-chlorobenzyl)-1-((1-methyl-1H-benzo[d][1,2,3]triazol-5-yl)methyl)-1H-pyrazole-4-carboxamide]	> 30
COc1ccc(Cn2cc(C(=O)NCc3ccc(Cl)cc3)cn2)cc1 [N-(4-chlorobenzyl)-1-(4-methoxybenzyl)-1H-pyrazole-4-carboxamide]	> 30
COc1cc(C)c(CNC(=O)c2cn(Cc3ccc4nc(C)ccc4c3)nn2)c(C)n1 [N-((6-methoxy-2,4-dimethylpyridin-3-yl)methyl)-1-((2-methylquinolin-6-yl)methyl)-1H-1,2,3-triazole-4-carboxamide]	> 30
